Read-outs that look alike come from different tables or passages of the source.

For test [1], the system named is rabbit aorta smooth muscle. Briefly: Inhibition of smooth muscle contraction, rabbit aorta in organ bath. Further details: species or system New Zealand White Rabbits. The conditions noted are these: Oryctolagus cuniculus, pre-contracted with phenylephrine (10 μM). How it is done: (§1) New Zealand White Rabbits (2.0-2.5 kg) were killed by cervical dislocation, cavernosal tissue (corpus canvernosus) and aorta excised.
(§2) The tissue was mounted in organ baths for recording of isometric tension, according to the method described by Khan MA et al (BJU Int. 1999 84(6):720-4). Tissues were pre-contracted with phenylephrine (10 μM) and relaxation responses to carbachol assessed in the presence of the compound to be tested.
(§3) The compound of the invention used in the assay was 2-acetyloxybenzoic acid 6-(nitroxymethyl)-2-pyridinylmethyl ester hydrochloride (NCX 4050), which synthesis is described in preceding example 1.
(§4) The reference compound was 2-acetoxybenzoic acid (3-nitroxymethyl)phenyl ester of formula [drawing 34]

Test [2] concerns human vascular smooth cell proliferation. The test can be described thus: Inhibition of smooth muscle cell proliferation (3H-thymidine). The format is cell-based. The conditions noted are these: 10% FCS. How it is done:
Human saphenous veins were cultured by standard explant methods (J. Cardiovasc., Pharmacol. 1999, 33(2), 204-11). Tissues were collected into sterile pots containing PBS, penicillin and streptomycin. Under sterile tissue culture conditions, tissues were cut into small pieces (approximately 1 mg weight) and placed into a standard culture medium containing 20% fetal calf serum (FCS) for several days (medium changed every 2-4 days). ^3H-thymidine was measured in the DNA fraction of cells cultured into 48 well plates. Cells were cultured to confluence in the medium containing 10% FCS. Cells were deprived of serum for 24 h before the addition of 10% FCS, together with different concentration of steroids. After 24 h, ^3H-thymidine was added to the cells for 4 h. Cells were washed with phosphate buffered saline and ethanol. DNA was extracted with sodium hydroxide solution and the ^3H material counted by scintillation. The data represents observations made in triplicate wells.
Table 2 reports results obtained on the inhibitory effect of the tested compounds on human vascular smooth cell proliferation.

The test system of test [3] is rabbit corpus cavernosum smooth muscle. Briefly: Inhibition of smooth muscle contraction, rabbit corpus cavernosum in organ bath. On the set-up: species or system New Zealand White Rabbits. The settings on record: Oryctolagus cuniculus, pre-contracted with phenylephrine (10 μM). As to the method: as §1, §2, §3, §4
Setting [4] is: concentration (log M) −4, human saphenous vein cells.
Where [5] appears, read: concentration (log M) −5, human saphenous vein cells.

As to `CC(=O)Oc1ccccc1C(=O)Oc1cccc(CO[N+](=O)[O-])c1` [NCX 4016, 2-acetoxybenzoic acid (3-nitroxymethyl)phenyl ester], the inhibition at 100 µM in test [1] (concentration (log M) −4) was found to be 20%. Further, the inhibition at 10 µM in test [1] (concentration (log M) −5, read-out: % inhibition rabbit aorta) was determined as 18%; in test [3] (concentration (log M) −5, read-out: % inhibition rabbit corpus cav) it was 14%. Besides, the results for the “% inhibition cell proliferation” value in test [2] (setting [4]) and in test [2] (setting [5]) were 60% and 43%, respectively.

Take `CC(=O)Oc1ccccc1C(=O)OCc1cccc(CO[N+](=O)[O-])n1.Cl` [NCX 4050, 2-Acetyloxybenzoic Acid 6-(Nitroxymethyl)-2-pyridinylmethyl Ester Chlorhydrate]: the inhibition at 10 µM in test [1] (read-out: % inhibition rabbit aorta, concentration (log M) −5) is 80%; in test [3] (read-out: % inhibition rabbit corpus cav, concentration (log M) −4), 85%; in test [3] (read-out: % inhibition rabbit corpus cav, concentration (log M) −5), 63%. In addition, the entries for the “% inhibition cell proliferation” value in test [2] (setting [4]) and in test [2] (setting [5]) were 95% and 82%, respectively.

Values taken from patent US6613784B1, “Nitroxyderivatives having antinflammatory, analgesic and antithrombotic activity” (Nicox S.A., priority 1999, dated 2003).
